Data reported in PMC10746543, “Design principles for cyclin K molecular glue degraders” (Nature Chemical Biology, 2023).
Where “and” joins values, the source holds several entries; their conditions need not be identical. Equal entries are not always repeated. Where two headings read alike, the source gives them in different places.

What was measured:
[1] = target: T1, CDK12–cyclin K and DDB1 (Homo sapiens, UniProt Q16531+Q9NYV4, K965R); assay: TR-FRET ternary complex formation assay (compound titration); format: binding
T1 construct: His6–CDK12 (a.a. 713–1,052); full-length or beta-propeller B domain deletion (ΔBPB: a.a. 396–705 deleted) constructs of His6–DDB1ΔBPB, StrepII–Avi–DDB1, or His6–Spy–DDB1; made in house; host or cells: Trichoplusia ni High Five insect cells (baculovirus)
T1 sequence (Q9NYV4 713-1052 K965R): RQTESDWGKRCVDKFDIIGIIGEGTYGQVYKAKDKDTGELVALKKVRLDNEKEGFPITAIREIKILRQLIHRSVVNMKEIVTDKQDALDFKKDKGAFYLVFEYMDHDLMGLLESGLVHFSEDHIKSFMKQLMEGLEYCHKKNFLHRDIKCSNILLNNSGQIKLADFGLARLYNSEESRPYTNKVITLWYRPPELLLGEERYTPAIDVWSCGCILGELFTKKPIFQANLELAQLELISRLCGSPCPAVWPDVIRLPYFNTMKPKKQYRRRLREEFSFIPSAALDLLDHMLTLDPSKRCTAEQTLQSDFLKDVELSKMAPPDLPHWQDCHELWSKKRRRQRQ
T1 sequence (O75909 1-267 partner): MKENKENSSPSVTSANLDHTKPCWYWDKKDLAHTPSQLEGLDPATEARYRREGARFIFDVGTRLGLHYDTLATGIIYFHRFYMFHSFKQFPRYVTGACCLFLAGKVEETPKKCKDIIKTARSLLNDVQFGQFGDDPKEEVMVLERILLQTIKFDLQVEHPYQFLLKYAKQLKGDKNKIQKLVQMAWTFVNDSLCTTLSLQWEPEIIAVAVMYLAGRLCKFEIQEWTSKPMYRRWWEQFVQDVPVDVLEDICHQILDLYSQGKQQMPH
T1 sequence (Q16531 whole entry): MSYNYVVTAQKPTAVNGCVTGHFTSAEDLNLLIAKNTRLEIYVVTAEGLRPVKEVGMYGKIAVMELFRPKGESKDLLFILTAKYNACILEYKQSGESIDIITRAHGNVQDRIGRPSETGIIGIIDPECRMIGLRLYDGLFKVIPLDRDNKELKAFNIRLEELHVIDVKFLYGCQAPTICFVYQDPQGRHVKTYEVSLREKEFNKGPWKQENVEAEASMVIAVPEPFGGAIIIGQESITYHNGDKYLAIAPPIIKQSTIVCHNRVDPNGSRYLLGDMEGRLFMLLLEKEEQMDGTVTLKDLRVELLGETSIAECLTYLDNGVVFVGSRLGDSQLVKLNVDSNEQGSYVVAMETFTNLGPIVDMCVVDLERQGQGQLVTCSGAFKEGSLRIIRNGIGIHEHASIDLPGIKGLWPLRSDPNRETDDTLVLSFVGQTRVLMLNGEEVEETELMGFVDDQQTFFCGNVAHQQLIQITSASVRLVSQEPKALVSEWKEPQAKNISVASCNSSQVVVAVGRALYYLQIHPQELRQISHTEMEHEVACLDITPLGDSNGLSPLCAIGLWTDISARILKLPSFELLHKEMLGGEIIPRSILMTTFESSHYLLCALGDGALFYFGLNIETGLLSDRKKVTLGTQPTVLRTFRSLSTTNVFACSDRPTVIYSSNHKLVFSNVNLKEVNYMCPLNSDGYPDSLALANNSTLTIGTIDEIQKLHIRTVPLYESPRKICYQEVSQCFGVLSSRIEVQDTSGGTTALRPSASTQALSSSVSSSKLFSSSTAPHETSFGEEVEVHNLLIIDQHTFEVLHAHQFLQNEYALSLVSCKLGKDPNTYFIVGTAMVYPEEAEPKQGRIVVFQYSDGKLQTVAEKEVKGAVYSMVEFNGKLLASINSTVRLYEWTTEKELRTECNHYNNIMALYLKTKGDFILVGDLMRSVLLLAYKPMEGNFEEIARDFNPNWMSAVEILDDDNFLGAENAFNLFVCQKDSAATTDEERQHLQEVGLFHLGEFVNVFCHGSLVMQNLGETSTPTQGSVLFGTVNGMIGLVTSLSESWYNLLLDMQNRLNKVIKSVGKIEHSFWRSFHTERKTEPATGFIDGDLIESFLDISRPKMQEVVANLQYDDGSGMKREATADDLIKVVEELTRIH
Method in brief: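 Signal was the ratio of 520 nm to 490 nm fluorescence, measured after a 70 μs delay that reduced background.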

[2] = system: cyclin K–eGFP degradation reporter; assay: Cyclin K reporter stability analysis (dual-color cyclin K–eGFP reporter); format: cell-based, human
Method in brief: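 HEK293T–Cas9 cells carrying the cyclin K–eGFP reporter were seeded at 1 × 10^6 ml^−1 and exposed to drug or DMSO for 5 h. Flow cytometry gave geometric means of eGFP and mCherry in round, mCherry-positive cells. The eGFP/mCherry ratio was normalized to the mean of three DMSO controls.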

[3] = system: HEK293T cells; assay: Drug sensitivity assay (CellTiter-Glo viability) with or without MLN4924 pretreatment; format: cell-based, human; details: for EC50: Homo sapiens, HEK-293T, HEK293T viability, 72 h, compound alone, read-out: Cellular assays EC50; for EC50 / Toxicity rescue: Supplementary Table 2; for Toxicity rescue: MLN4924-mediated cytotoxicity rescue, 10 µM used where n.d.
Method in brief: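 HEK293T–Cas9, 0.15 × 10^6 ml^−1; pretreat DMSO vs 100 nM MLN4924; drugs dispensed after 2 h; 3 d exposure; CellTiter-Glo; viability vs DMSO control.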

[4] = compound concentration 4.68 nM, raw replicate titration data
[5] = compound concentration 21.6 nM, raw replicate titration data
[6] = compound concentration 36 nM, raw replicate titration data
[7] = compound concentration 79.2001 nM, raw replicate titration data
[8] = compound concentration 158.4 nM, raw replicate titration data
[9] = compound concentration 309.6 nM, raw replicate titration data
[10] = compound concentration 626.401 nM, raw replicate titration data
[11] = compound concentration 1252.8 nM, raw replicate titration data
[12] = compound concentration 2448 nM, raw replicate titration data
[13] = compound concentration 9936.01 nM, raw replicate titration data
[14] = compound concentration 20016 nM, raw replicate titration data
[15] = Supplementary Table 2; HEK293T cycK-eGFP reporter, 5 h; read-out: Cellular assays DC50

CO[C@@H](C(=O)N1Cc2n[nH]c(NC(=O)c3ccc(N4CCN(C)CC4)cc3)c2C1)c1ccccc1 [Danusertib, reference compound]
TR-FRET signal at compound concentration 4.68 nM [1, 4]: 0.1339 and 0.1541
TR-FRET signal at compound concentration 21.6 nM [1, 5]: 0.1288 and 0.1496
TR-FRET signal at compound concentration 36 nM [1, 6]: 0.1327 and 0.1506
TR-FRET signal at compound concentration 79.2001 nM [1, 7]: 0.1323 and 0.1494
TR-FRET signal at compound concentration 158.4 nM [1, 8]: 0.1293 and 0.1473
TR-FRET signal at compound concentration 309.6 nM [1, 9]: 0.1264 and 0.1438
TR-FRET signal at compound concentration 626.401 nM [1, 10]: 0.1205 and 0.1382
TR-FRET signal at compound concentration 1252.8 nM [1, 11]: 0.1096 and 0.1174
TR-FRET signal at compound concentration 2448 nM [1, 12]: 0.09891 and 0.113
TR-FRET signal at compound concentration 9936.01 nM [1, 13]: 0.07702 and 0.08712
TR-FRET signal at compound concentration 20016 nM [1, 14]: 0.06845 and 0.07789
DC50 [2, 15]: > 10000 nM
EC50 [3]: > 10000 nM
Toxicity rescue [3]: 0%

CCc1cnn2c(NCc3ccc[n+]([O-])c3)cc(N3CCCC[C@H]3CCO)nc12 [Dinaciclib]
TR-FRET signal at compound concentration 0.468 nM ([1]; compound concentration 0.468 nM, raw replicate titration data): 0.1026 and 0.1033
TR-FRET signal at compound concentration 2.16 nM ([1]; compound concentration 2.16 nM, raw replicate titration data): 0.1211 and 0.1202
TR-FRET signal at compound concentration 3.6 nM ([1]; compound concentration 3.6 nM, raw replicate titration data): 0.158 and 0.1569
TR-FRET signal at compound concentration 4.68 nM [1, 4]: 0.141 and 0.164
TR-FRET signal at compound concentration 7.92001 nM ([1]; compound concentration 7.92001 nM, raw replicate titration data): 0.229 and 0.2182
TR-FRET signal at compound concentration 15.84 nM ([1]; compound concentration 15.84 nM, raw replicate titration data): 0.3288 and 0.3136
TR-FRET signal at compound concentration 21.6 nM [1, 5]: 0.2804 and 0.3137
TR-FRET signal at compound concentration 30.96 nM ([1]; compound concentration 30.96 nM, raw replicate titration data): 0.3522 and 0.3143
TR-FRET signal at compound concentration 36 nM [1, 6]: 0.3155 and 0.3474
TR-FRET signal at compound concentration 62.6401 nM ([1]; compound concentration 62.6401 nM, raw replicate titration data): 0.2879 and 0.2897
TR-FRET signal at compound concentration 79.2001 nM [1, 7]: 0.2612 and 0.2943
TR-FRET signal at compound concentration 125.28 nM ([1]; compound concentration 125.28 nM, raw replicate titration data): 0.2755 and 0.2904
TR-FRET signal at compound concentration 158.4 nM [1, 8]: 0.2643 and 0.2881
TR-FRET signal at compound concentration 244.8 nM ([1]; compound concentration 244.8 nM, raw replicate titration data): 0.2809 and 0.2743
TR-FRET signal at compound concentration 309.6 nM [1, 9]: 0.2462 and 0.2819
TR-FRET signal at compound concentration 626.401 nM [1, 10]: 0.2417 and 0.2805
TR-FRET signal at compound concentration 993.601 nM ([1]; compound concentration 993.601 nM, raw replicate titration data): 0.2627 and 0.2615
TR-FRET signal at compound concentration 1252.8 nM [1, 11]: 0.2431 and 0.2774
TR-FRET signal at compound concentration 2001.6 nM ([1]; compound concentration 2001.6 nM, raw replicate titration data): 0.2535 and 0.232
TR-FRET signal at compound concentration 2448 nM [1, 12]: 0.2678 and 0.2721
TR-FRET signal at compound concentration 9936.01 nM [1, 13]: 0.2509 and 0.2771
TR-FRET signal at compound concentration 20016 nM [1, 14]: 0.2402 and 0.253
reporter assay signal (normalized) ([2]; 5 nM; replicates): 0.9772 and 0.948
reporter assay signal (normalized) ([2]; 10.7 nM; replicates): 0.9389 and 0.9407
reporter assay signal (normalized) ([2]; 22.9 nM; replicates): 0.9927 and 0.9745
reporter assay signal (normalized) ([2]; 48.9 nM; replicates): 0.9927 and 0.9772
reporter assay signal (normalized) ([2]; 105 nM; replicates): 0.9863 and 0.9964
reporter assay signal (normalized) ([2]; 224 nM; replicates): 1.014 and 1.0155
reporter assay signal (normalized) ([2]; 478 nM; replicates): 0.99 and 1.01
reporter assay signal (normalized) ([2]; 2190 nM; replicates): 0.9881 and 0.9945
reporter assay signal (normalized) ([2]; 4680 nM; replicates): 1.022 and 0.99
reporter assay signal (normalized) ([2]; 10000 nM; replicates): 1.044 and 1.03
cyclin K reporter degradation, result in words ([2]; HEK293T): non-degrading
DC50 ([2]; read-out: Cellular assays DC50; Supplementary Table 2; HEK293T cycK-eGFP reporter, 5 h): > 10000 nM
viability assay signal (normalized) ([3]; 5 nM, + MLN4924): 0.8664 and 0.8028
viability assay signal (normalized) ([3]; 5 nM, without MLN4924): 0.9657 and 1.0645
viability assay signal (normalized) ([3]; 10.7 nM, + MLN4924): 0.7659 and 0.6765
viability assay signal (normalized) ([3]; 10.7 nM, without MLN4924): 0.9934 and 0.9758
viability assay signal (normalized) ([3]; 22.9 nM, + MLN4924): 0.3817 and 0.3517
viability assay signal (normalized) ([3]; 22.9 nM, without MLN4924): 0.3511 and 0.381
viability assay signal (normalized) ([3]; 48.9 nM, + MLN4924): 0.2784 and 0.2759
viability assay signal (normalized) ([3]; 48.9 nM, without MLN4924): 0.2851 and 0.2898
viability assay signal (normalized) ([3]; 105 nM, + MLN4924): 0.2848 and 0.2647
viability assay signal (normalized) ([3]; 105 nM, without MLN4924): 0.2976 and 0.3085
viability assay signal (normalized) ([3]; 224 nM, + MLN4924): 0.2797 and 0.277
viability assay signal (normalized) ([3]; 224 nM, without MLN4924): 0.291 and 0.2867
viability assay signal (normalized) ([3]; 478 nM, + MLN4924): 0.2746 and 0.2757
viability assay signal (normalized) ([3]; 478 nM, without MLN4924): 0.3016 and 0.2883
viability assay signal (normalized) ([3]; 2190 nM, + MLN4924): 0.2646 and 0.2589
viability assay signal (normalized) ([3]; 2190 nM, without MLN4924): 0.2893 and 0.2745
viability assay signal (normalized) ([3]; 4680 nM, + MLN4924): 0.2516 and 0.2662
viability assay signal (normalized) ([3]; 4680 nM, without MLN4924): 0.2682 and 0.2734
viability assay signal (normalized) ([3]; 10000 nM, + MLN4924): 0.2413 and 0.2482
viability assay signal (normalized) ([3]; 10000 nM, without MLN4924): 0.239 and 0.2604
Toxicity rescue [3]: -12%

CN1CC[C@H](c2c(O)cc(O)c3c(=O)cc(-c4ccccc4Cl)oc23)[C@H](O)C1 [Flavopiridol, reference compound]
TR-FRET signal at compound concentration 4.68 nM [1, 4]: 0.2594 and 0.2805 and 0.1719 and 0.175
TR-FRET signal at compound concentration 21.6 nM [1, 5]: 0.4135 and 0.429 and 0.2939 and 0.3262
TR-FRET signal at compound concentration 36 nM [1, 6]: 0.6079 and 0.623 and 0.4905 and 0.5031
TR-FRET signal at compound concentration 79.2001 nM [1, 7]: 0.8256 and 0.8685 and 0.6858 and 0.596
TR-FRET signal at compound concentration 158.4 nM [1, 8]: 0.9273 and 1.013 and 0.793 and 0.779
TR-FRET signal at compound concentration 309.6 nM [1, 9]: 0.9662 and 1.065 and 0.8707 and 0.8846
TR-FRET signal at compound concentration 626.401 nM [1, 10]: 1.035 and 1.155 and 0.9082 and 0.902
TR-FRET signal at compound concentration 1252.8 nM [1, 11]: 1.099 and 1.27 and 0.978 and 0.9866
TR-FRET signal at compound concentration 2448 nM [1, 12]: 1.138 and 1.2612 and 0.9975 and 0.9532
TR-FRET signal at compound concentration 9936.01 nM [1, 13]: 1.131 and 1.306 and 0.9937 and 0.9375
TR-FRET signal at compound concentration 20016 nM [1, 14]: 1.0554 and 1.222 and 0.9378 and 0.9067
DC50 [2, 15]: > 10000 nM
EC50 [3]: 395 nM
Toxicity rescue [3]: 1%

COC[C@@H](C)N[C@H]1CC[C@H](Nc2cc(-c3cccc(NCC4(C#N)CCOCC4)n3)c(Cl)cn2)CC1 [NVP-2, reference compound]
TR-FRET signal at compound concentration 4.68 nM [1, 4]: 0.1362 and 0.1646
TR-FRET signal at compound concentration 21.6 nM [1, 5]: 0.1797 and 0.2051
TR-FRET signal at compound concentration 36 nM [1, 6]: 0.2299 and 0.264
TR-FRET signal at compound concentration 79.2001 nM [1, 7]: 0.275 and 0.3223
TR-FRET signal at compound concentration 158.4 nM [1, 8]: 0.3283 and 0.3614
TR-FRET signal at compound concentration 309.6 nM [1, 9]: 0.3492 and 0.3941
TR-FRET signal at compound concentration 626.401 nM [1, 10]: 0.3927 and 0.4325
TR-FRET signal at compound concentration 1252.8 nM [1, 11]: 0.4009 and 0.4489
TR-FRET signal at compound concentration 2448 nM [1, 12]: 0.4033 and 0.4482
TR-FRET signal at compound concentration 9936.01 nM [1, 13]: 0.3857 and 0.4199
TR-FRET signal at compound concentration 20016 nM [1, 14]: 0.3623 and 0.3979
EC50 ([1]; in vitro complex formation, 50 nM CDK12–cyclin K, 100 nM DDB1, text and figures, read-out: TR-FRET EC50): 62 ± 13 nM
DC50 [2, 15]: > 10000 nM
EC50 [3]: 23 nM
Toxicity rescue [3]: -22%

CC(C)(C)c1cnc(CSc2cnc(NC(=O)C3CCNCC3)s2)o1 [SNS032, reference compound]
TR-FRET signal ([1]; compound concentration 4.68 nM): 0.1508 and 0.1736
TR-FRET signal ([1]; compound concentration 21.6 nM): 0.2014 and 0.2318
TR-FRET signal ([1]; compound concentration 36 nM): 0.2617 and 0.2904
TR-FRET signal ([1]; compound concentration 79.2001 nM): 0.3013 and 0.3457
TR-FRET signal ([1]; compound concentration 158.4 nM): 0.3207 and 0.3602
TR-FRET signal ([1]; compound concentration 309.6 nM): 0.329 and 0.3662
TR-FRET signal ([1]; compound concentration 626.401 nM): 0.3309 and 0.3799
TR-FRET signal ([1]; compound concentration 1252.8 nM): 0.346 and 0.4035
TR-FRET signal ([1]; compound concentration 2448 nM): 0.3618 and 0.4046
TR-FRET signal ([1]; compound concentration 9936.01 nM): 0.3822 and 0.42
TR-FRET signal ([1]; compound concentration 20016 nM): 0.3638 and 0.4143
DDB1–CDK12 complex formation, result in words ([1]; in vitro TR-FRET): no gain-of-function activity
DC50 [2, 15]: > 10000 nM
EC50 [3]: 265 nM
% MLN4924 rescue ([3]; PCA input): 0%
Toxicity rescue [3]: -22%
